Assays:
[1] = equilibrium O2-. + H+ <-> HOO.; cited from earlier work
[2] = J. Phys. Chem. A 1997, 101, 8822-8829; cited from earlier work
[3] = Time needed for sterilization depending on solution temperature; details: solution temperature 30° C.
Protocol: Where the solution has a temperature of 10° C. or lower, the solution may be applied to an object to be sterilized with the temperature remaining unchanged. It is also possible to raise the temperature of the solution to 20° C. or more at the time of application of the solution to the object to be sterilized. It is preferable for the solution to have a lower temperature in order to preserve peroxynitric acid, but at the same time, is preferable for the solution to have a certain level of high temperature for sterilization. To be specific, while the solution having a temperature of 0° C. needs time to sterilize the object, the solution having a temperature of 30° C. needs only 20 seconds to sufficiently sterilize the object. When the situation permits to take time to sterilize the object, it is preferable to perform sterilization at a low temperature. When quick sterilization is needed, it is preferable to raise the temperature, for example, to 30 through 40° C.

Bacillus subtilis spore = assay: Sterilization effect of synthesized peroxynitric acid on Bacillus subtilis spore (FIGS. 9-11); assay type: cell-based; details: for drop of the number of living microorganisms in Bacillus subtilis spore: peroxynitric acid approximately 0.5 mM or higher, pH 3.5
Protocol: Where the solution of the synthesized peroxynitric acid has a pH value of 3.5 and the peroxynitric acid has a concentration of approximately 0.5 mM or higher, the number of living microorganisms in Bacillus subtilis spore drops from 6 orders of magnitude to 2 orders of magnitude or less, which indicates a drop of 4 orders of magnitude or more.
(§1) In this experiment, the detection limit was reached when the number of living microorganisms was in 2 orders of magnitude or less, then further sterilization effect was not measured. Thus, if the concentration of the synthesized peroxynitric acid is further increased, the number of living microorganisms is expected to be further reduced. In the experiment, diluted solution of the synthesized peroxynitric acid was used. If undiluted solution is used, more powerful microbicidal activity is expected to be exerted. The peroxynitric acid synthesized in the fourth embodiment has a concentration of 420 mM. For example, using undiluted solution of the synthesized peroxynitric acid probably lowers the number of living microorganisms to further […] of magnitude or more.

[4] = Lifetime / decomposition of synthesized peroxynitric acid depending on temperature; assay type: physicochemical; details: solution at 0° C.
Description: The synthesis reaction of peroxynitric acid progresses also at a room temperature. To be specific, peroxynitric acid is synthesized at a room temperature; however, the lifetime of the synthesized peroxynitric acid depends on temperature. Where being saved at a room temperature, the synthesized peroxynitric acid is quickly decomposed to turn into nitric acid in a short time. When the temperature rises by 5 degrees, the rate of decomposition doubles. For example, the rate of decomposition at a temperature of 20° C. is 16 times as fast as that at a temperature of 0° C. (zero). Thus, the synthesized peroxynitric acid turns into nitric acid solution very quickly at a temperature of 50° C. The half-life of the peroxynitric acid is 10 minutes or so at a room temperature. The half-life of the peroxynitric acid is a few hours (2 to 3 hours or so) at a temperature of 0 (zero) degrees.
In order to preserve the solution with the biocidal activity maintained, it is preferable to set the temperature of the solution as low as possible. For example, the solution is adjusted to have a temperature of 0° C., which enables the solution to be stored/preserved for a couple of hours, for example, for 5 to 8 hours or so. Freezing the solution allow the solution to be preserved for a longer time.

[5] = Sterilization effect after adding enzyme for disappearing superoxide anion radicals
Description: The peroxynitric acid in the solution is probably a precursor which produces the superoxide anion radicals (O2—.). The superoxide anion radicals (O2—.) are probably precursors which produce the hydroperoxy radicals (HOO.).

Escherichia coli = assay: Sterilization effect of synthesized peroxynitric acid on Escherichia coli (FIG. 8); assay type: cell-based; details: peroxynitric acid approximately 0.02 mM or higher; pH 3.5; 25° C.; from 7 orders to 2 orders or less (detection limit)
Protocol: In FIGS. 8, 9, and 11, solution of peroxynitric acid has a pH value of 3.5 and a temperature of 25° C. In the heat treatment of FIG. 10, the solution of peroxynitric acid is heated for thirty minutes to have a temperature of 60° C.
as §1

[6] = Activation energy in decomposition response, compared with literature value; assay type: physicochemical
Protocol: As for the substance corresponding to the retention time RT of 2.8 minutes shown in FIG. 5, an activation energy in decomposition response thereof was actually measured. The activation energy measured was compared to an activation energy in decomposition response of peroxynitric acid. The comparison result is provided as follows: • Actual measured value: 109 kJ/mol • Literature value: 110 kJ/mol • Both the values are in good accord with each other. Thereby, the substance corresponding to the retention time RT of 2.8 minutes is probably peroxynitric acid.
The activation energy in decomposition response herein was cited from the following document.
J. Phys. Chem. A 1997, 101, 8822-8829 “Peroxynitric Acid Decay Mechanisms and Kinetics at Low pH”.

Row | Molecule | pKa (acid dissociation constant) [1] | activation energy in decomposition response, literature value [2] | time needed to sufficiently sterilize the object [3] | drop of the number of living microorganisms in Bacillus subtilis spore (Bacillus subtilis spore; FIG. 9, 25° C., from 6 orders to 2 orders or less (detection limit)) | drop of the number of living microorganisms in Bacillus subtilis spore (Bacillus subtilis spore; FIG. 10) | number of living microorganisms in Bacillus subtilis spore (Bacillus subtilis spore; FIG. 10, solution pH 6.5, stays in 6 orders of magnitude) | sterilization effect on Bacillus subtilis spore after heat treatment (Bacillus subtilis spore; FIG. 11, peroxynitric acid heated thirty minutes to 60° C., count stays in 6 orders of magnitude) | time the solution can be stored/preserved with biocidal activity maintained [4] | sterilization effect with enzyme for disappearing superoxide anion radicals in the solution [5] | drop of the fungicidal concentration (number of living microorganisms) of Escherichia coli (Escherichia coli) | activation energy in decomposition response, actual measured value [6]
1 | [O]O [hydroperoxy radicals (HOO.), hydroperoxy radicals] | 4.8 |  |  |  |  |  |  |  |  |  | 
2 | peroxynitric acid |  | 26.3 kcal/mol | 20 s | ≥ 4 orders | ≥ 4 orders of magnitude | approximately constant independently of the concentration of the peroxynitric acid | disappearance of sterilization effect | 5 to 8 h | sterilization effect is not observed | ≥ 5 orders | 26.1 kcal/mol

Reference: patent US10499648B2, “Sterilization method, formulation for sterilization use, and device for producing sterilizing liquid” (priority 2014, dated 2019)
